# From patent US5214036A, “Benzoporphyrin derivatives for photodynamic therapy” (University of British Columbia, priority 1990, dated 1993)
# Assays:
# [1] = Absorption spectrum / absorption maximum; assay type: physicochemical; conditions: FIG. 3
# LDL = assay: Step density gradient of BPD added to isolated lipoprotein fraction; assay type: in vitro ADME, human; conditions: added to lipoprotein fraction after separation of albumin, % of total added
# Description: (§1) (b) Determining BPD Plasma Distribution. Experiments were performed to determine the association of BPDs with plasma protein and lipoprotein fractions. When density ultracentrifugation was used for the analysis, 2 ml samples of human plasma were incubated for 18 hours at 4° C. in the presence of 100 μg of ^3 H-BPD-MA. The BPD-plasma solution was then adjusted to a density of 1.21 g/ml by the addition of solid KBr. A step gradient was prepared using stock KBr density solutions at 1.006, 1.019, and 1.063 g/ml, layered manually into the bottom of centrifuge tubes using a glass syringe and a narrow bore needle. The BPD-plasma solution was then layered into the bottom of the tube. Separation of the plasma proteins was accomplished by centrifugation in a Beckman SW 41 rotor for 24 hours at 40,000 rpm and 15° C. 0.5 ml fractions were collected, and the protein content of each fraction was monitored by measuring absorbance at 280 nm. 100 μl of each fraction was mixed with 5 ml Aquasol (NEN) and counted in a liquid scintillation counter.
# (§2) To improve the HDL-albumin resolution, albumin was removed by ultracentrifugation. Plasma was mixed with ^14 C-BPD-MA and incubated for 18 hours at 4° C. The density of the mixture was then adjusted to 1.21 g/ml by the addition of solid KBr, followed by centrifugation at 40,000 rpm for 48 hours. […] The lipoprotein and lipoprotein-depleted fractions were counted for BPD-MA content. 82% of total ^14 C-BPD-MA added was recovered in the plasma lipoprotein fraction and 5% in the lipoprotein deficient fraction.
# (§3) When albumin and other serum proteins were separated from the lipoprotein fraction before the addition of ^14 C-BPD-MA, a shift in binding was observed. After step density gradient separation, the majority of BPD-MA was still recovered with HDL (38% of total ^14 C-BPD-MA added); however in this case, the association with LDL and VLDL fractions appeared to be equivalent (17% with LDL and 18% with VLDL) (FIG. 5). […] Polyacrylamide gel electrophoresis of the HDL fractions from these density gradients confirmed that very little albumin was present. […]
# VLDL = assay: as above; assay type: in vitro ADME, human; conditions: added to lipoprotein fraction after separation of albumin, % of total added
# Description: as §1, §2, §3
# HDL = assay: as above; assay type: in vitro ADME, human; conditions: added to lipoprotein fraction after separation of albumin, % of total added
# Description: as §1, §2, §3
# [2] = tested on: high density lipoproteins (HDLs); conditions: Barel et al.; cited from earlier work
# [3] = background; cited from earlier work
SMILES,major absorption peak [1],associated with LDL (LDL) [%],associated with VLDL (VLDL) [%],recovered with HDL (HDL) [%],affinity for high density lipoproteins [2],additional absorbance [3],maximum absorbance [3]
C=Cc1c(C)c2cc3nc(cc4[nH]c(cc5nc(cc1[nH]2)C(C)=C5CCC(=O)O)c(CCC(=O)O)c4C)C1(C)C3=CC=C(C(=O)OC)C1C(=O)OC (stereo not shown) [BPD-DA],about 685 nm,13,20,54,,,
CC1=C(CCC(=O)O)c2cc3[nH]c(cc4nc(cc5[nH]c(cc1n2)c(C)c5C(C)O)C(C)=C4C(C)O)c(C)c3CCC(=O)O (stereo not shown) [hematoporphyrin],,,,,higher affinity for high density lipoproteins (HDLs),around 630 nm,around 400 nm
